Experimental data: patent publication US8476314B2, “Substance with sedative effect” (Technology Commercialization Corp, priority 2002, dated 2013)
Entries after “also recorded” stand apart in the source; their conditions may differ.

What was measured:
[1] = system: Pliss limphosarcoma; experiment: growth of transplanted Pliss limphosarcoma in rats; format: in vivo; details: 50 mg/kg i.p., once per day, 5 times per week, 10 injections; tumor volumes day 6, 9, 13, 16 and mortality vs control; Anoceptin 1% solution
Method: Comenic acid (in medicinal form, referred to as “Anoceptin™”) was also tested on rats with transplanted tumors (Pliss limphosarcoma) to determine if it stimulated tumor growth (Effect of medicine Anoceptin on the growth of transplantable tumor in rats, State Oncology Institute, 2006, Saint-Petersburg, Russia). Pliss limphosarcoma was transplanted subcutaneously into 20 rats. Forty-eight hours after transplantation, the rats were randomly assigned into groups (10 rats in experimental group, and 10 in control group) and the injections were started. Both groups were injected i.p. (intraperitoneal) once per day, 5 times per week and given a total of 10 injections each. The experimental group was administered 50 mg/kg of comenic acid in each injection, while the control group was injected with 1.5 ml of physiological solution. Comenic acid was utilized in its medicinal form (“Anoceptin™”), a 1% solution with ions of proper moiety. For both groups, the size of the tumor was measured on day 6, 9, 13 and 16 of the experiment, and the volumes were calculated. […] The data was determined to be statistically significant, with p<0.05.

[2] = system: animals; experiment: continued daily administration to animals (sedative effect, dependency); format: in vivo
Method: (§1) One of the preferred compounds of the invention is comenic acid, also known as 5-hydroxy-4-oxo-4H-pyran-2-carbon acid, as well as 5-hydroxy-gamma-pyrone-2-carboxylic acid. […] The effect is long lasting, up to 24 hours after administration. […] The acid can be administered in a number of pharmaceutically acceptable ways by mixing it with known and biologically acceptable carriers. Administration methods include all parenteral modes, including injection (intravenously, subcutaneously, intramuscularly or intraperitoneal), transdermally, transmucosally, etc. […] This duration compares quite favorably to a typical drug abuse treatment cycle of 3 to 6 months using substitution methods such as methadone.
The effect from each administration lasts up to 24 hours.

[3] = system: Ehrlich carcinoma; experiment: growth of transplanted Ehrlich carcinoma in rats; format: in vivo; details: 50 mg/kg i.p., once per day, 5 times per week, 10 injections; tumor volumes day 13-44 and mortality vs control; Anoceptin 1% solution
Method: Comenic acid (in medicinal form, referred to as “Anoceptin™”) was also tested on rats with transplanted tumors (Ehrlich carcinoma) to determine if it stimulated tumor growth (Effect of medicine Anoceptin on the growth of transplantable tumor, State Oncology Institute, 2006, Saint-Petersburg, Russia). Ehrlich carcinoma was transplanted subcutaneously into 20 rats. Forty-eight hours after transplantation, the rats were randomly assigned into groups (10 rats in experimental group, and 10 in control group) and the injections were started. Both groups were injected i.p. (intraperitoneal) once per day, 5 times per week and given a total of 10 injections each. The experimental group was administered 50 mg/kg of comenic acid in each injection, while each in the control group was injected with 0.125 ml of physiological solution. Comenic acid was utilized in its medicinal form (“Anoceptin™”), a 1% solution with ions of proper moiety. For both groups, the size of the tumor was measured on day 13, 16, 20, 23, 27, 30, 37 and 44 of the experiment, and the volumes were calculated. […] The data was determined to be statistically significant, with p<0.05.

[4] = system: animals; experiment: treatment of narcotic dependency / withdrawal syndrome in animals; format: in vivo; details: pharmacologically effective dose
Method: as §1
It is intended that the selected gamma-pyrones as described in the proceeding section be administered as a substitute for the abused drug. Typically, this will involve administration of a therapeutically effective amount of a composition containing the compounds of the invention at least once every twenty-four hours. […] The preferred dosage range is from about 0.05 to about 0.5 mg per kilogram of body weight per day. Such daily dosage can be achieved in a single application, multiple applications or using a continuous release application.

[5] = system: tetrodotoxin-resistant (TTXr) Nav1.8 slow sodium channels; experiment: patch-clamp experiments on dorsal root ganglion neurons; format: cell-based; details: for modulation of the activity of TTXr Nav1.8 slow sodium channels: patch-clamp, extracellular solution Na+ 65 mM, Ca2+ 2 mM, Mg2+ 2 mM
[6] = system: male rats of Wistar line; experiment: "open field" test, motor activity of rats (sedative effect); format: in vivo, rat; details: for Motor activity after the preparation's introduction (n): enteral, squares crossed within 5 minutes; for Lowering motor activity relative to the control (%): vs saline; for Lowering motor activity relative to the Valerian extract (%): vs same dose of Valerian extract
Method: The sedative effect was measured by the change in motor activity of male rats of Wistar line with the mass of 0.20-0.23 kg in “the open field” test [Guiding and Method Materials in Experimental and Clinical Study of New Drugs. Part 2. M., 1980, pp. 126-133].
Male rats were subjected to the enteral introduction of 0.5 ml of saline solution. Then, the animals were divided into two groups. The rats in the first group were tested in “the open field” 60 minutes after the solution's introduction. The rats in the second group were tested 90 minutes after the introduction. The test consisted of the rat being placed in the center of “the open field”, and then the number of squares of “the open field” that the rat crosses within 5 minutes is counted (an estimation of motor activity).
Valerian extract was steamed until it became dry. Then, the dry remains were dissolved in saline in the required dosage (see table 1 and rated in mg/kg of a rat's body weight). The solution obtained was introduced into rats in the same way as for control. The testing of rats in “the open field” was also carried out as described for control.
Comenic acid was dissolved in saline in the desired dosages (see table 1 below). The solution's pH was adjusted to equal 6.5-6.8 using concentrated NaOH solution. Comenic acid was introduced into the rats in the same way as in control. The testing of rats in “the open field” was carried out as described for control group as well.

[7] = solubility; format: physicochemical
[8] = system: opioid (or opioid-like) receptor; experiment: patch-clamp experiments, receptor binding (naltrexone block, affinity order); format: cell-based; details: patch-clamp results, decreasing affinity
From the text: The physiological effect on the Nav1.8 channel of the following closely related gamma-pyrone derivatives (see FIG. 1) was investigated: I) comenic acid (5-hydroxy-gamma-pyrone-2-carboxylic acid), II) meconic acid (3-hydroxy-gamma-pyrone-2,6-dicarboxylic acid, III) 5-methoxy-gamma-pyrone-2-carboxylic acid, IV) kojic acid (2-hydroxymethyl-5-hydroxy-gamma-pyrone) and V) chelidonic acid (gamma-pyrone-2,6-dicarboxylic acid). […] Clinical Pathophysiology (Russian), in press].
Thus, according to the model of the mechanism of ligand receptor binding of said opioid (or opioid like) receptor, the prerequisites for gamma-pyrones receptor activity are 1) a carboxy group in position 2 of the pyranone ring, 2) a carbonyl group in position 4 of the pyranone ring, and 3) a substituent in position 5 which can participate in Ca^2+ chelation. […] Clinical Pathophysiology (Russian), in press]. Based on these observations, several conclusions concerning the potential effect of substituents in positions 3, 5 and 6 on the stability of ligand-receptor complex can be drawn. The presence of a carboxy group in position 6 (meconic acid, II) increases ligand affinity to the receptor as compared with comenic acid (I). It may be proposed that the carboxy group in position 6 is involved in additional interaction with one or several polar functional groups of the receptor by formation of intermolecular hydrogen or salt bonds. Based on this, introduction of a hydrophobic substituent in position 6 should reduce the affinity of gamma-pyrone derivatives to said opioid (or opioid-like) receptor. […] An increase in the size of the alkoxy group in position 5 will also lead to a further decrease or even total loss of physiological activity of the gamma-pyrone molecule. Bulky substituents in positions 3, 5 and 6 will decrease the affinity of gamma-pyrones to said receptor, since they will less readily be accommodated in the binding pocket.

[9] = experiments repeated with the same rats

Compound: O=C(O)c1cc(=O)c(O)co1 [Comenic acid, 5-hydroxy-gamma-pyrone-2-carboxylic acid]
- effect on the growth of transplantable tumors of Pliss limphosarcoma [1]: no effect (no stimulation and no inhibition)
- drug dependency after continued daily use ([2]; 50 days of continued daily use): without causing drug dependency
- duration of the effect after administration ([2]; each administration): up to 24 hours
- effect on the growth of transplantable tumors of Ehrlich carcinoma [3]: no effect (no stimulation and no inhibition)
- treatment of narcotic dependency in animals [4]: effective treatment for the cure of narcotic dependency
- modulation of the activity of TTXr Nav1.8 slow sodium channels ([5]; listed as I): modulated the activity; also recorded: shown to modulate the functioning
- Motor activity after the preparation's introduction (n) ([6]; 1 mg/kg of body weight, 60 min): 43.9 ± 6.8 n
- Motor activity after the preparation's introduction (n) ([6]; 1 mg/kg of body weight, 90 min): 51.2 ± 8.3 n
- Lowering motor activity relative to the control (%) ([6]; 1 mg/kg, 60 min): 13%
- Lowering motor activity relative to the Valerian extract (%) ([6]; 1 mg/kg, 60 min): 19%
- Lowering motor activity relative to the control (%) ([6]; 1 mg/kg, 90 min): −8%
- Lowering motor activity relative to the Valerian extract (%) ([6]; 1 mg/kg, 90 min): −21%
- Motor activity after the preparation's introduction (n) ([6]; 10 mg/kg of body weight, 60 min): 37.6 ± 5.9 n
- Motor activity after the preparation's introduction (n) ([6]; 10 mg/kg of body weight, 90 min): 41.6 ± 6.8 n
- Lowering motor activity relative to the control (%) ([6]; 10 mg/kg, 60 min): 25%
- Lowering motor activity relative to the Valerian extract (%) ([6]; 10 mg/kg, 60 min): 22%
- Lowering motor activity relative to the control (%) ([6]; 10 mg/kg, 90 min): 12.5%
- Lowering motor activity relative to the Valerian extract (%) ([6]; 10 mg/kg, 90 min): −9%
- Motor activity after the preparation's introduction (n) ([6]; 50 mg/kg of body weight, 60 min): 18.7 ± 3.3 n
- Motor activity after the preparation's introduction (n) ([6]; 50 mg/kg of body weight, 90 min): 15.2 ± 3.1 n
- Lowering motor activity relative to the control (%) ([6]; 50 mg/kg, 60 min): 63%
- Lowering motor activity relative to the Valerian extract (%) ([6]; 50 mg/kg, 60 min): 52%
- Lowering motor activity relative to the control (%) ([6]; 50 mg/kg, 90 min): 68%
- Lowering motor activity relative to the Valerian extract (%) ([6]; 50 mg/kg, 90 min): 52%
- Motor activity after the preparation's introduction (n) ([6]; 100 mg/kg of body weight, 60 min): 13.4 ± 4.8 n
- Motor activity after the preparation's introduction (n) ([6]; 100 mg/kg of body weight, 90 min): 10.3 ± 2.8 n
- Lowering motor activity relative to the control (%) ([6]; 100 mg/kg, 60 min): 73%
- Lowering motor activity relative to the Valerian extract (%) ([6]; 100 mg/kg, 60 min): 67%
- Lowering motor activity relative to the control (%) ([6]; 100 mg/kg, 90 min): 78%
- Lowering motor activity relative to the Valerian extract (%) ([6]; 100 mg/kg, 90 min): 53%
- development of tolerance [6, 9]: no development of tolerance
- drug dependency [6, 9]: no indication of drug dependency
- other side effects of the administration [6, 9]: no other side effects
- sedative effect compared with that of valerian extract ([6]; rats, open field, 50 and 100 mg/kg): twice
- solubility in non-polar organic solvents [7]: practically insoluble
- solubility in water and alcohol [7]: moderately water- and alcohol-soluble
- order of affinity of the test molecule to the receptor [8]: II>I>III

Compound: O=C(O)c1cc(=O)c(O)c(C(=O)O)o1 [II, 3-hydroxy-gamma-pyrone-2,6-dicarboxylic acid]
- modulation of the activity of TTXr Nav1.8 slow sodium channels [5]: modulated the activity
- order of affinity of the test molecule to the receptor [8]: II>I>III

Compound: COc1coc(C(=O)O)cc1=O [III, 5-methoxy-gamma-pyrone-2-carboxylic acid]
- effect on the Nav1.8 slow sodium channel compared with comenic acid (I) ([5]; patch clamp, dorsal root ganglion neurons): decrease in activity
- modulation of the activity of TTXr Nav1.8 slow sodium channels [5]: modulated the activity; also recorded: shown to modulate the functioning
- solubility in non-polar organic solvents [7]: practically insoluble
- solubility in water and alcohol [7]: moderately water- and alcohol-soluble
- order of affinity of the test molecule to the receptor [8]: II>I>III

Compound: O=c1cc(CO)occ1O [IV, 2-hydroxymethyl-5-hydroxy-gamma-pyrone, reference compound]
- modulation of the activity of TTXr Nav1.8 slow sodium channels [5]: did not exhibit such effect; also recorded: did not influence the functioning

Compound: O=C(O)c1cc(=O)cc(C(=O)O)o1 [V, gamma-pyrone-2,6-dicarboxylic acid, reference compound]
- modulation of the activity of TTXr Nav1.8 slow sodium channels [5]: did not exhibit such effect; also recorded: did not influence the functioning
